Activity calls are given as the source filed them. The calls are words filed in the database; no cut-off is given here.
Legend:
Staphylococcus aureus [1] = assay: Antibacterial activity against methicillin resistant Staphylococcus aureus infected in female Kunming mouse model of skin infection assessed as suppression of purulent secretion at 4 mg/kg administered daily pre-infected for 4 hrs followed by compound administration for 7 days; format: functional, organism-based; details: time 7.0 day
[2] = Toxicity in Kunming mouse assessed as morphological abnormalities at 4 mg/kg administered daily and measured after 7 days; format: organism-based; details: in vivo, 168 h, time 7 day
Staphylococcus aureus [3] = assay: Antibacterial activity against methicillin resistant Staphylococcus aureus infected in female Kunming mouse model of skin infection assessed as reduction in inflammatory cell infiltration at 4 mg/kg administered daily pre-infected for 4 hrs followed by compound administration for 7 days; format: functional, organism-based; details: time 7.0 day
Staphylococcus aureus [4] = assay: Antibacterial activity against methicillin resistant Staphylococcus aureus infected in female Kunming mouse model of skin infection assessed as reduction in bacterial load of wound at 4 mg/kg administered daily pre-infected for 4 hrs followed by compound administration for 7 days; format: functional, organism-based; details: time 7.0 day
Staphylococcus aureus [5] = assay: Induction of morphological changes in methicillin-resistant Staphylococcus aureus assessed as appearance of clustered bacterial surface at 4 times MIC measured for 5 hrs by field emission scanning electron microscopy based analysis; format: functional, organism-based
Staphylococcus aureus [6] = assay: Induction of morphological changes in biofilm of methicillin-resistant Staphylococcus aureus assessed as appearance of broken biofilm at 1 to 4 times MIC incubated for 24 hrs by DAPI staining based fluorescence microscopy analysis; format: functional, organism-based
Staphylococcus aureus [7] = assay: Antibacterial activity against methicillin resistant Staphylococcus aureus infected in female Kunming mouse model of skin infection assessed as reduction in wound size at 4 mg/kg administered daily pre-infected for 4 hrs followed by compound administration for 7 days; format: functional, organism-based; details: time 7.0 day
Staphylococcus aureus [8] = assay: Induction of morphological changes in methicillin-resistant Staphylococcus aureus assessed as appearance of flocculated bacterial surface at 4 times MIC measured for 5 hrs by field emission scanning electron microscopy based analysis; format: functional, organism-based
Staphylococcus aureus [9] = assay: Antibacterial activity against methicillin resistant Staphylococcus aureus infected in female Kunming mouse model of skin infection assessed as increase in neovascularization at 4 mg/kg administered daily pre-infected for 4 hrs followed by compound administration for 7 days; format: functional, organism-based; details: time 7.0 day
Staphylococcus aureus [10] = assay: Antimicrobial activity against methicillin-resistant Staphylococcus aureus assessed as reduction in bacterial growth in presence of peptidoglycan by checkerboard broth dilution method; format: functional, organism-based
Cell membrane = assay: Induction of cell membrane depolarization in methicillin-resistant Staphylococcus aureus assessed as reduction in fluorescence intensity measured for 30 mins by DiSC3(5) dye-based fluorescence assay; format: subcellular
Enterococcus faecalis [11] = assay: Induction of morphological changes in biofilm of vancomycin-resistant Enterococcus faecalis ATCC51299 assessed as decrease in biofilm density at 1 to 4 times MIC incubated for 24 hrs by DAPI staining based fluorescence microscopy analysis; format: functional, organism-based
Enterococcus faecalis [12] = assay: Antibacterial activity against vancomycin-resistant Enterococcus faecalis ATCC51299 infected in female Kunming mouse model of abdominal infection assessed as decrease in inflammatory cell infiltration at 4 mg/kg administered daily pre-infected for 12 hrs followed by compound administration for 3 days; format: functional, organism-based; details: time 3.0 day
Enterococcus faecalis [13] = assay: (§1) Antibacterial activity against vancomycin-resistant Enterococcus faecalis ATCC51299 infected in female Kunming mouse model of abdominal infection assessed as decrease in bacterial load in kidney at 4 mg/kg administered daily pre-infected for 12 hrs followed by compound administration for 3 days; format: functional, organism-based; details: time 3.0 day
Enterococcus faecalis [14] = assay: Antibacterial activity against vancomycin-resistant Enterococcus faecalis ATCC51299 infected in female Kunming mouse model of abdominal infection assessed as watery degeneration of hepatocytes at 4 mg/kg administered daily pre-infected for 12 hrs followed by compound administration for 3 days; format: functional, organism-based; details: time 3.0 day
Enterococcus faecalis [15] = assay: Antibacterial activity against vancomycin-resistant Enterococcus faecalis ATCC51299 infected in female Kunming mouse model of abdominal infection assessed as decrease in bacterial load in liver at 4 mg/kg administered daily pre-infected for 12 hrs followed by compound administration for 3 days; format: functional, organism-based; details: time 3.0 day
Enterococcus faecalis [16] = assay: Antibiofilm activity in vancomycin-resistant Enterococcus faecalis ATCC51299 assessed as increase in biofilm destruction at 1 times MIC incubated for 24 hrs by crystal violet staining based analysis relative to control; format: functional
Staphylococcus aureus [17] = assay: Antibiofilm activity in methicillin-resistant Staphylococcus aureus assessed as increase in biofilm destruction at 1 times MIC incubated for 24 hrs by crystal violet staining based analysis relative to control; format: functional
Enterococcus faecalis [18] = assay: as §1, with “peritoneal effusion” for “kidney”; format: functional, organism-based; details: time 3.0 day
Enterococcus faecalis [19] = assay: Antibacterial activity against vancomycin-resistant Enterococcus faecalis ATCC51299 infected in female Kunming mouse model of abdominal infection assessed as decrease in bacterial load in spleen at 4 mg/kg administered daily pre-infected for 12 hrs followed by compound administration for 3 days; format: functional, organism-based; details: time 3.0 day
Enterococcus faecalis [20] = assay: Antibacterial activity against vancomycin-resistant Enterococcus faecalis ATCC51299 infected in female Kunming mouse model of abdominal infection assessed as decrease in granulocytes at 4 mg/kg administered daily pre-infected for 12 hrs followed by compound administration for 3 days; format: functional, organism-based; details: time 3.0 day

Structure (SMILES): C=CCCCCCCCCCCCc1cc(O)cc(O)c1C(=O)O
- Activity (Staphylococcus aureus [1]): Active
- Activity [2]: Non-Toxic
- Activity (Staphylococcus aureus [3]): Active
- Activity (Staphylococcus aureus [4]): Active
- Activity (Staphylococcus aureus [5]): Active
- Activity (Staphylococcus aureus [6]): Active
- Activity (Staphylococcus aureus [7]): Active
- Activity (Staphylococcus aureus [8]): Active
- Activity (Staphylococcus aureus [9]): Active
- Activity (Staphylococcus aureus [10]): Active
- Activity (Cell membrane): Active
- Activity (Enterococcus faecalis [11]): Active

Structure (SMILES): C=CCCCCCCCCCCCc1cc(O)cc(O)c1
- Activity (Enterococcus faecalis [12]): Active
- Activity (Enterococcus faecalis [13]): Active
- Activity (Enterococcus faecalis [14]): Active
- Activity (Staphylococcus aureus [5]): Active
- Activity (Staphylococcus aureus [6]): Active
- Activity (Enterococcus faecalis [15]): Active
- Activity (Staphylococcus aureus [8]): Active
- Activity (Staphylococcus aureus [10]): Active
- Activity (Cell membrane): Active
- Activity (Enterococcus faecalis [16]): >50%
- Activity (Staphylococcus aureus [17]): >50%
- Activity (Enterococcus faecalis [11]): Active
- Activity (Enterococcus faecalis [18]): Active
- Activity (Enterococcus faecalis [19]): Active
- Activity (Enterococcus faecalis [20]): Active

From ChEMBL document CHEMBL6071135, “New resorcylic acid derivatives of Lysimachia tengyuehensis against MRSA and VRE by interfering with bacterial metabolic imbalance” (Eur J Med Chem, 2024)
